Measured values from publication PMC10313671, “Accelerating the prediction and discovery of peptide hydrogels with human-in-the-loop” (Nature Communications, 2023).
Where a SMILES comes first, the peptide text is derived from it.

Key:
[1] = Transmission electron microscope (negative staining) of peptide assemblies; settings: for Morphology: TEM, negative staining with uranyl acetate, 120 kV
Experimental: We used the negative staining technique to observe the morphologies formed by peptides. A micropipette was used to load 10 μL of sample solution to a carbon-coated copper grid, and we used a piece of filter paper to remove the excess solution. After rinsing the grid with the deionized water, we used uranyl acetate to stain the sample for 1 minute and then rinsed the grid with deionized water again.

[2] = Peptide hydrogel formation, vial-inverting method; assay type: physicochemical; design: key to EXP / GELATION: 0: no hydrogel; 1: hydrogel; settings: for State: ultrasonication, standing 48 h; for State / GELATION: vial-inverting method; for Concentration: concentration at which the state was recorded: lowest of 30, 60, 90, 120 mM that gave a gel, 120 mM for non-gelating peptides; for GELATION: 1 = hydrogel, 0 = no hydrogel
Method in brief: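 Tetrapeptides dissolved in ultrapure water at 30 mM, pH brought to 6.5–8.5 with 1 N NaOH stepwise with brief ultrasonication, then left 48 h. Gel defined as self-supporting and non-flowing on vial inversion; non-gelling peptides retested at 60, 90 and 120 mM.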

[3] = 120 mM peptide (highest tested) in ultrapure water, pH 6.5-8.5 (1 N NaOH), precipitate, sol, suspension = no gel
[4] = 90 mM peptide in ultrapure water, pH 6.5-8.5 (1 N NaOH), no gel at lower concentrations
[5] = 30 mM peptide in ultrapure water, pH adjusted to 6.5-8.5 with 1 N NaOH, concentration raised 30/60/90/120 mM until gelation
[6] = 60 mM peptide in ultrapure water, pH 6.5-8.5 (1 N NaOH), no gel at 30 mM

Structure (SMILES)	Concentration [2]	Morphology ([1]; line of the table gives 30 mM)	State [2, 5]	GELATION ([2]; peptide concentration 30 mM)	other results
CC[C@H](C)[C@H](NC(=O)[C@@H](NC(=O)[C@H](Cc1c[nH]cn1)NC(=O)[C@@H](N)CC(C)C)[C@@H](C)CC)C(=O)O [LHII] (H-LHII-OH)	120000 µM	–	–	–	Morphology ([1]; line of the table gives 120 mM): aggregates; State [2, 3]: sol; GELATION ([2]; peptide concentration 120 mM): 0
CC[C@H](C)[C@H](NC(=O)[C@@H](N)CC(C)C)C(=O)N[C@@H](CCC(=O)O)C(=O)N[C@@H](CCSC)C(=O)O [LIEM] (H-LIEM-OH)	90000 µM	–	–	–	Morphology ([1]; line of the table gives 90 mM): hybrid(sheet+fibre); State [2, 4]: gel; GELATION ([2]; peptide concentration 90 mM): 1
CC(C)C[C@H](NC(=O)[C@@H](N)CC(C)C)C(=O)N[C@@H](Cc1c[nH]cn1)C(=O)N[C@@H](Cc1ccccc1)C(=O)O [LLHF] (H-LLHF-OH)	30000 µM	hybrid(sphere+fibre)	gel	1	–
CC(C)C[C@H](NC(=O)[C@H](CC(C)C)NC(=O)[C@@H](N)CC(C)C)C(=O)N[C@@H](Cc1ccccc1)C(=O)O [LLLF] (H-LLLF-OH)	30000 µM	aggregates	gel	1	–
CC(C)C[C@H](NC(=O)[C@H](CC(C)C)NC(=O)[C@H](CC(C)C)NC(=O)[C@@H](N)CC(C)C)C(=O)O [LLLL] (H-LLLL-OH)	30000 µM	needle	gel	1	–
CC(C)C[C@H](NC(=O)[C@H](CC(C)C)NC(=O)[C@@H](N)CC(C)C)C(=O)N[C@@H](CO)C(=O)O [LLLS] (H-LLLS-OH)	30000 µM	sheet	gel	1	–
CC(C)C[C@H](NC(=O)[C@H](CC(C)C)NC(=O)[C@@H](N)CC(C)C)C(=O)N[C@@H](Cc1ccc(O)cc1)C(=O)O [LLLY] (H-LLLY-OH)	30000 µM	hybrid(sphere+fibre)	gel	1	–
CC(C)C[C@H](NC(=O)[C@@H](N)CC(C)C)C(=O)N[C@@H](CCCNC(=N)N)C(=O)N[C@@H](CCC(N)=O)C(=O)O [LLRQ] (H-LLRQ-OH)	120000 µM	–	–	–	Morphology ([1]; line of the table gives 120 mM): aggregates; State [2, 3]: suspension; GELATION ([2]; peptide concentration 120 mM): 0
CC(C)C[C@H](NC(=O)[C@H](CO)NC(=O)[C@H](CC(C)C)NC(=O)[C@@H](N)CC(C)C)C(=O)O [LLSL] (H-LLSL-OH)	60000 µM	–	–	–	Morphology ([1]; line of the table gives 60 mM): sheet; State [2, 6]: gel; GELATION ([2]; peptide concentration 60 mM): 1
CC(C)C[C@H](N)C(=O)N[C@@H](CCCNC(=N)N)C(=O)N[C@@H](Cc1ccccc1)C(=O)N[C@@H](Cc1c[nH]cn1)C(=O)O [LRFH] (H-LRFH-OH)	120000 µM	–	–	–	Morphology ([1]; line of the table gives 120 mM): particle; morphology by TEM (in words) ([1]; aqueous solution or hydrogel, negative staining): aggregates with different sizes; State [2, 3]: sol; GELATION ([2]; peptide concentration 120 mM): 0
CC(C)C[C@H](N)C(=O)N[C@@H](CO)C(=O)N[C@@H](Cc1ccccc1)C(=O)N[C@@H](Cc1c[nH]c2ccccc12)C(=O)O [LSFW] (H-LSFW-OH)	60000 µM	–	–	–	Morphology ([1]; line of the table gives 60 mM): hybrid(sphere+fibre); State [2, 6]: gel; GELATION ([2]; peptide concentration 60 mM): 1
CC(C)C[C@H](NC(=O)[C@@H](NC(=O)[C@@H](N)CC(C)C)[C@@H](C)O)C(=O)N[C@@H](Cc1ccccc1)C(=O)O [LTLF] (H-LTLF-OH)	30000 µM	sheet	gel	1	–
CC[C@H](C)[C@H](NC(=O)[C@H](CC(C)C)NC(=O)[C@@H](NC(=O)[C@@H](N)CC(C)C)[C@@H](C)O)C(=O)O [LTLI] (H-LTLI-OH)	30000 µM	sheet	gel	1	–
CC(C)C[C@H](N)C(=O)N[C@H](C(=O)N[C@@H](Cc1c[nH]c2ccccc12)C(=O)N[C@@H](Cc1ccccc1)C(=O)O)[C@@H](C)O [LTWF] (H-LTWF-OH)	120000 µM	–	–	–	Morphology ([1]; line of the table gives 120 mM): aggregates; State [2, 3]: sol; GELATION ([2]; peptide concentration 120 mM): 0
CC[C@H](C)[C@H](NC(=O)[C@H](C)NC(=O)[C@@H](NC(=O)[C@@H](N)CC(C)C)C(C)C)C(=O)O [LVAI] (H-LVAI-OH)	60000 µM	–	–	–	Morphology ([1]; line of the table gives 60 mM): fibre; State [2, 6]: gel; GELATION ([2]; peptide concentration 60 mM): 1
CC(C)C[C@H](N)C(=O)N[C@H](C(=O)N[C@@H](Cc1ccccc1)C(=O)N[C@@H](Cc1ccccc1)C(=O)O)C(C)C [LVFF]	30000 µM	sphere	gel	1	–
CC(C)C[C@H](N)C(=O)N[C@H](C(=O)N[C@@H](Cc1ccccc1)C(=O)NCC(=O)O)C(C)C [LVFG] (H-LVFG-OH)	60000 µM	–	–	–	Morphology ([1]; line of the table gives 60 mM): aggregates; State [2, 6]: gel; GELATION ([2]; peptide concentration 60 mM): 1
CC(C)C[C@H](N)C(=O)N[C@H](C(=O)N[C@@H](Cc1c[nH]cn1)C(=O)N[C@@H](Cc1ccccc1)C(=O)O)C(C)C [LVHF] (H-LVHF-OH)	30000 µM	hybrid(sphere+fibre)	gel	1	–
CC[C@H](C)[C@H](NC(=O)[C@@H](NC(=O)[C@@H](N)CC(C)C)C(C)C)C(=O)N[C@@H](Cc1ccccc1)C(=O)O [LVIF] (H-LVIF-OH)	60000 µM	–	–	–	Morphology ([1]; line of the table gives 60 mM): fibre; State [2, 6]: gel; GELATION ([2]; peptide concentration 60 mM): 1
CC[C@H](C)[C@H](NC(=O)[C@@H](NC(=O)[C@@H](NC(=O)[C@@H](N)CC(C)C)C(C)C)[C@@H](C)CC)C(=O)O [LVII] (H-LVII-OH)	30000 µM	sheet	gel	1	–
CC[C@H](C)[C@H](NC(=O)[C@@H](NC(=O)[C@@H](N)CC(C)C)C(C)C)C(=O)N[C@@H](Cc1ccc(O)cc1)C(=O)O [LVIY] (H-LVIY-OH)	120000 µM	–	–	–	Morphology ([1]; line of the table gives 120 mM): sheet; State [2, 3]: gel; GELATION ([2]; peptide concentration 120 mM): 1
CC[C@H](C)[C@H](NC(=O)[C@H](CC(C)C)NC(=O)[C@@H](NC(=O)[C@@H](N)CC(C)C)C(C)C)C(=O)O [LVLI] (H-LVLI-OH)	30000 µM	sheet	gel	1	–
CC(C)C[C@H](N)C(=O)N[C@H](C(=O)N1CCC[C@H]1C(=O)N[C@@H](Cc1ccccc1)C(=O)O)C(C)C [LVPF] (H-LVPF-OH)	120000 µM	–	–	–	Morphology ([1]; line of the table gives 120 mM): aggregates; State [2, 3]: sol; GELATION ([2]; peptide concentration 120 mM): 0
CC(C)C[C@H](N)C(=O)N[C@H](C(=O)N[C@@H](Cc1c[nH]c2ccccc12)C(=O)N[C@@H](Cc1ccccc1)C(=O)O)C(C)C [LVWF] (H-LVWF-OH)	90000 µM	–	–	–	Morphology ([1]; line of the table gives 90 mM): needle; State [2, 4]: gel; GELATION ([2]; peptide concentration 90 mM): 1
CC(C)C[C@H](N)C(=O)N[C@@H](Cc1c[nH]c2ccccc12)C(=O)N[C@@H](Cc1ccccc1)C(=O)N[C@@H](Cc1ccccc1)C(=O)O [LWFF] (H-LWFF-OH)	30000 µM	hybrid(sheet+fibre)	gel	1	–
CC[C@H](C)[C@H](NC(=O)[C@H](Cc1ccccc1)NC(=O)[C@H](Cc1c[nH]c2ccccc12)NC(=O)[C@@H](N)CC(C)C)C(=O)O [LWFI] (H-LWFI-OH)	120000 µM	–	–	–	Morphology ([1]; line of the table gives 120 mM): aggregates; State [2, 3]: sol; GELATION ([2]; peptide concentration 120 mM): 0
